Test results taken from the NIST ThermoML archive (doi:10.1016/j.fluid.2013.06.021).

Assay: xn = mol fraction of the nth substance listed
Conditions: 101 kPa, Liquid; for speed of sound: Sing-around technique in a fixed-path interferometer; for mass density: Vibrating tube method; for viscosity: Capillary tube (Ostwald / Ubbelohde) method

CCCCOCCO [2-butoxyethan-1-ol] + CCCCO
Conditions	mass density [kg/m3]	speed of sound [m/s]	viscosity [mPa·s]
293.15 K, x1 = 0.0516	816.39	1262.2	–
293.15 K, x1 = 0.1011	822.44	1266.6	–
293.15 K, x1 = 0.1535	828.64	1271.1	–
293.15 K, x1 = 0.2027	834.27	1275.2	–
293.15 K, x1 = 0.2537	839.84	1279.2	–
293.15 K, x1 = 0.3027	844.99	1282.9	–
293.15 K, x1 = 0.4	854.57	1289.8	–
293.15 K, x1 = 0.5055	864.12	1296.7	–
293.15 K, x1 = 0.6054	872.48	1302.5	–
293.15 K, x1 = 0.7025	880.07	1307.9	–
293.15 K, x1 = 0.8042	887.49	1313.2	–
293.15 K, x1 = 0.8552	891.03	1315.9	–
293.15 K, x1 = 0.906	894.44	1318.5	–
293.15 K, x1 = 0.9526	897.48	1320.9	–
298.15 K, x1 = 0.0516	812.543	1245.2	2.586
298.15 K, x1 = 0.1011	818.58	1249.7	2.553
298.15 K, x1 = 0.1535	824.722	1254.2	2.536
298.15 K, x1 = 0.2027	830.281	1258.3	2.524
298.15 K, x1 = 0.2537	835.832	1262.3	2.516
298.15 K, x1 = 0.3027	840.96	1266.1	–
298.15 K, x1 = 0.3028	–	–	2.516
298.15 K, x1 = 0.4	850.503	1272.9	2.527
298.15 K, x1 = 0.5055	860.043	1279.7	2.555
298.15 K, x1 = 0.6054	868.393	1285.6	2.592
298.15 K, x1 = 0.7025	875.94	1290.9	2.645
298.15 K, x1 = 0.8042	883.317	1296.2	2.703
298.15 K, x1 = 0.8552	886.83	1298.8	2.743
298.15 K, x1 = 0.906	890.248	1301.4	2.785
298.15 K, x1 = 0.9526	893.29	1303.8	2.835
303.15 K, x1 = 0.0516	808.67	1228.5	2.269
303.15 K, x1 = 0.1011	814.69	1233	2.243
303.15 K, x1 = 0.1535	820.82	1237.5	2.235
303.15 K, x1 = 0.2027	826.35	1241.5	2.234
303.15 K, x1 = 0.2537	831.87	1245.5	2.229
303.15 K, x1 = 0.3027	836.98	1249.1	–
303.15 K, x1 = 0.3028	–	–	2.235
303.15 K, x1 = 0.4	846.49	1255.9	2.255
303.15 K, x1 = 0.5055	855.99	1262.6	2.303
303.15 K, x1 = 0.6054	864.3	1268.6	2.345
303.15 K, x1 = 0.7025	871.83	1274	2.401
303.15 K, x1 = 0.8042	879.17	1279.4	2.475
303.15 K, x1 = 0.8552	882.67	1282	2.518
303.15 K, x1 = 0.906	886.07	1284.5	2.564
303.15 K, x1 = 0.9526	889.1	1286.7	2.607
308.15 K, x1 = 0.0516	804.78	1211.8	2.029
308.15 K, x1 = 0.1011	810.77	1216.3	2.008
308.15 K, x1 = 0.1535	816.87	1220.7	1.994
308.15 K, x1 = 0.2027	822.39	1224.7	1.98
308.15 K, x1 = 0.2537	827.9	1228.7	1.966
308.15 K, x1 = 0.3027	832.98	1232.3	–
308.15 K, x1 = 0.3028	–	–	1.965
308.15 K, x1 = 0.4	842.45	1239.1	1.968
308.15 K, x1 = 0.5055	851.91	1245.9	1.981
308.15 K, x1 = 0.6054	860.19	1251.9	2.006
308.15 K, x1 = 0.7025	867.68	1257.4	2.045
308.15 K, x1 = 0.8042	875.01	1262.8	2.106
308.15 K, x1 = 0.8552	878.5	1265.3	2.138
308.15 K, x1 = 0.906	881.88	1267.8	2.175
308.15 K, x1 = 0.9526	884.89	1270	2.204
313.15 K, x1 = 0.0516	800.853	1195.2	–
313.15 K, x1 = 0.1011	806.824	1199.7	–
313.15 K, x1 = 0.1535	812.87	1204.1	–
313.15 K, x1 = 0.2027	818.34	1208.2	–
313.15 K, x1 = 0.2537	823.81	1212.2	–
313.15 K, x1 = 0.3027	828.88	1215.9	–
313.15 K, x1 = 0.4	838.34	1222.7	–
313.15 K, x1 = 0.5055	847.79	1229.5	–
313.15 K, x1 = 0.6054	856.04	1235.4	–
313.15 K, x1 = 0.7025	863.5	1240.7	–
313.15 K, x1 = 0.8042	870.78	1246	–
313.15 K, x1 = 0.8552	874.26	1248.5	–
313.15 K, x1 = 0.906	877.63	1251	–
313.15 K, x1 = 0.9526	880.64	1253.2	–

CCCCOCCO [2-butoxyethan-1-ol] + CCCO
Conditions	mass density [kg/m3]	speed of sound [m/s]	viscosity [mPa·s]
293.15 K, x1 = 0.052	812.72	1233.5	–
293.15 K, x1 = 0.1024	820.5	1241.8	–
293.15 K, x1 = 0.1524	827.69	1249.4	–
293.15 K, x1 = 0.1986	833.97	1255.9	–
293.15 K, x1 = 0.2528	840.79	1263	–
293.15 K, x1 = 0.3032	846.73	1269.1	–
293.15 K, x1 = 0.4064	857.67	1280.4	–
293.15 K, x1 = 0.5015	866.6	1289.5	–
293.15 K, x1 = 0.6031	875.08	1298.1	–
293.15 K, x1 = 0.7006	882.33	1305.4	–
293.15 K, x1 = 0.8022	889.07	1312.2	–
293.15 K, x1 = 0.8553	892.31	1315.4	–
293.15 K, x1 = 0.9066	895.25	1318.3	–
293.15 K, x1 = 0.9516	897.7	1320.8	–
298.15 K, x1 = 0.052	808.78	1216.5	1.991
298.15 K, x1 = 0.1024	816.6	1224.8	2.014
298.15 K, x1 = 0.1524	823.84	1232.3	2.048
298.15 K, x1 = 0.1986	830.06	1238.9	2.079
298.15 K, x1 = 0.2528	836.87	1245.9	2.122
298.15 K, x1 = 0.3032	842.76	1252	2.163
298.15 K, x1 = 0.4064	853.64	1263.3	2.256
298.15 K, x1 = 0.5015	862.56	1272.3	2.351
298.15 K, x1 = 0.6031	871.01	1280.9	2.457
298.15 K, x1 = 0.7006	878.24	1288.3	2.558
298.15 K, x1 = 0.8022	884.94	1295.1	2.666
298.15 K, x1 = 0.8553	888.19	1298.3	2.725
298.15 K, x1 = 0.9066	891.15	1301.3	2.779
298.15 K, x1 = 0.9516	893.62	1303.7	2.83
303.15 K, x1 = 0.052	804.75	1199.4	1.751
303.15 K, x1 = 0.1024	812.56	1207.8	1.776
303.15 K, x1 = 0.1524	819.76	1215.4	1.811
303.15 K, x1 = 0.1986	825.96	1221.9	1.844
303.15 K, x1 = 0.2528	832.81	1229	1.883
303.15 K, x1 = 0.3032	838.66	1235.1	1.925
303.15 K, x1 = 0.4064	849.51	1246.3	2.027
303.15 K, x1 = 0.5015	858.44	1255.4	2.129
303.15 K, x1 = 0.6031	866.86	1264	2.233
303.15 K, x1 = 0.7006	874.08	1271.3	2.338
303.15 K, x1 = 0.8022	880.81	1278	2.443
303.15 K, x1 = 0.8553	884.07	1281.3	2.505
303.15 K, x1 = 0.9066	887.02	1284.2	2.559
303.15 K, x1 = 0.9516	889.53	1286.6	2.615
308.15 K, x1 = 0.052	800.67	1182.4	1.578
308.15 K, x1 = 0.1024	808.47	1190.8	1.597
308.15 K, x1 = 0.1524	815.69	1198.4	1.627
308.15 K, x1 = 0.1986	821.89	1205	1.657
308.15 K, x1 = 0.2528	828.69	1212.1	1.69
308.15 K, x1 = 0.3032	834.55	1218.3	1.726
308.15 K, x1 = 0.4064	845.38	1229.5	1.804
308.15 K, x1 = 0.5015	854.29	1238.6	1.874
308.15 K, x1 = 0.6031	862.71	1247.2	1.953
308.15 K, x1 = 0.7006	869.93	1254.4	2.026
308.15 K, x1 = 0.8022	876.64	1261.1	2.11
308.15 K, x1 = 0.8553	879.9	1264.3	2.156
308.15 K, x1 = 0.9066	882.86	1267.2	2.188
308.15 K, x1 = 0.9516	885.32	1269.7	2.218
313.15 K, x1 = 0.052	796.66	1165.4	–
313.15 K, x1 = 0.1024	804.45	1173.7	–
313.15 K, x1 = 0.1524	811.62	1181.4	–
313.15 K, x1 = 0.1986	817.8	1188	–
313.15 K, x1 = 0.2528	824.54	1195.2	–
313.15 K, x1 = 0.3032	830.4	1201.5	–
313.15 K, x1 = 0.4064	841.23	1212.9	–
313.15 K, x1 = 0.5015	850.1	1222	–
313.15 K, x1 = 0.6031	858.52	1230.6	–
313.15 K, x1 = 0.7006	865.71	1237.8	–
313.15 K, x1 = 0.8022	872.48	1244.4	–
313.15 K, x1 = 0.8553	875.69	1247.6	–
313.15 K, x1 = 0.9066	878.69	1250.5	–
313.15 K, x1 = 0.9516	881.14	1252.9	–
